US8487079B2, “Use of mitochondria-targeted electron scavengers as anti-inflammatory agents” (University of Pittsburgh—Of the Commonwealth System of …, priority 2007, dated 2013)

Key:
[1] = system: LPS-induced NO production in RAW 264.7 cells; experiment: Nitric oxide secretion (nitrite assay) by LPS-stimulated RAW 264.7 cells; type: cell-based, murine; settings: for NO secretion by LPS-stimulated RAW 264.7 cells: graded concentrations, added 1 h before LPS, 24 hours
Experimental: RAW 264.7 cells were obtained from the American Type Culture Collection (Manassas, Va.). Cells were maintained in DMEM supplemented with 10% FBS, 100 units/ml penicillin, and 100 μg/ml streptomycin at 37° C. in a humidified incubator (5% CO2, 95% air). For stimulation experiments, cells were transferred to 24-well polystyrene culture plates (Corning Life Sciences, Corning, N.Y.) at 0.3 or 1×10^6 cells/well (depending on the experiment) in 1 ml of medium per well. After overnight incubation, the medium was removed and replaced with DMEM containing 0.25% FBS. Cells were stimulated by adding 0.1 μg/ml to 1 μg/ml Escherichia coli 0111:B4 lipopolysaccharide (LPS) in the presence or absence of graded concentrations of XJB-5-131 or XJB-5-208.
(§1) Nitrite (NO2^−) concentrations were measured in cell supernatants and blood serum as an indicator of nitric oxide (.NO) production, where .NO readily oxidize into nitrites (NO2^−) and nitrates (NO3^−). The total concentration of .NO was determined by reducing NO3^− to NO2^− using cadmium and detecting NO2^− using the Greiss reagent and potassium nitrite as a standard.
(§2) Samples (200 μL) were incubated with 30% zinc sulfate to precipitate proteins and then centrifuged (4° C., 12,000 g, 5 min). Supernatants were added to 0.6 g activated cadmium (previously washed twice with each deionized H2O, 0.1 M HCl, and 0.1 NH4OH) and allowed to shake overnight at room temperature. The supernatants were removed. Greiss reagent (100 μL) was mixed with an equal volume of supernatant. Reaction between the Greiss reagent and NO2^−) yielded an azo dye that can be detected spectrophotometrically. Absorbance was measured at 550 nm using a Packard Fusion™ microplate reader (PerkinElmer, Wellesley, Mass.).
RAW 264.7 murine macrophage-like cells were incubated in the presence or absence of graded concentrations of XJB-5-131 or XJB-5-208. Concentrations of either XJB-5-131 or XJB-5-208 were dissolved in dimethyl sulfoxide (DMSO). During these experiments, the highest concentration of DMSO remaining in the cell culture was 0.18% (v/v). […]

[2] = system: iNOS mRNA in RAW 264.7 cells; experiment: iNOS mRNA expression in LPS-stimulated RAW 264.7 cells (real-time RT-PCR); type: cell-based, mouse; settings: LPS 100 ng/ml, 24 hours; for LPS-induced iNOS mRNA up-regulation: RT-PCR
Experimental: RAW 264.7 cells and liver tissue specimens were lysed with TRI-Reagent® (Molecular Research Center, Cincinnati, Ohio). Bromochloropropane (0.5 mL) was added in order to extract total RNA. After vigorous agitation and centrifugation (4° C., 12,000 g, 12 min), the aqueous phase containing RNA was collected. The RNA was precipitated with isopropanol (0.5 mL). The pellet was washed with 75% ethanol (1 mL) and centrifuged (4° C., 12,000 g, 5 min) twice, and then dissolved in RNA-free water. Total RNA was quantified using UV spectrophotometry (GeneQuant™ pro, GE Healthcare). Extracted RNAs (1 μg/reaction) were converted to single-strand cDNAs in a 20 μL volume reaction, using the Reverse Transcriptase System Kit (Promega, Madison, Wis.) as directed by the manufacturer. In a Gene Amp® PCR System 9700 (Applied Biosystems, Foster City, Calif.), the mixture was heated to 70° C. for 10 min, maintained at 42° C. for 30 min, and then heated to 95° C. for 5 min to terminate the reaction. TaqMan® Gene Expression Assays (Applied Biosystems) for 18S (endogenous control) and mouse iNOS were used. Reaction mixtures for PCR were assembled as follows: 10 μL TaqMan® Universal PCR Master Mix (Applied Biosystems), 1 μL of each assay, 5 μL cDNA template, and 3 μL of water. PCR reactions were performed in a thermocycler 7300 Real Time PCR System (Applied Biosystems) under recommended conditions (50° C. for 2 min; 95° C. for 10 min; 95° C. for 15 s; 60° C. for 1 min). The two last steps were repeated for 40 cycles. […] The ΔC^T relative quantification method was used to calculate mRNA levels for iNOS in the samples, as previously described (Scharte M, Han X, Bertges D J et al. Cytokines induce HIF-1 DNA binding and the expression of HIF-1-dependent genes in cultured rat enterocytes. Am J Physiol Gastrointest Liver Physiol 2003, 284:G373-G384). […]
RAW 264.7 cells were incubated in presence or absence of graded concentrations of XJB-5-131 or XJB-5-208. […] After 24 hours, steady-state levels of iNOS mRNA were measured using real-time quantitative RT-PCR.

[3] = system: HMGB1 secretion by RAW 264.7 cells; experiment: HMGB1 secretion by LPS-stimulated RAW 264.7 cells (Western blot); type: cell-based, murine; settings: LPS 1 μg/ml, 48 or 72 h, Western blot of supernatant
Experimental: Equal volumes of cell culture supernatants were mixed with Laemmli buffer (20% glycerol, 10% beta-mercaptoethanol, 5% SDS, 0.2 M Tris.HCl, pH 6.8, and 0.4% bromophenol blue). After boiling for 10 min, the samples were subjected to 10% SDS-polyacrylamide gel electrophoresis. The resolved proteins were transferred to Hybond™-P polyvinylidene difluoride membranes (GE Healthcare, Chalfont St. Giles, UK), and blocked with bovine lacto-transfer optimizer buffer (1×PBS, 5% nonfat milk, and 0.05% Tween® 20) for 1 h. The membranes were incubated overnight at 4° C. with a 1:2000 dilution of rabbit polyclonal anti-HMGB1 antibody (generously provided by Dr. Michael T. Lotze, University of Pittsburgh) in blocking buffer. After washing three times in 1×PBST (1×PBS with 0.3% Triton X-100), immunoblots were exposed at room temperature for 1 h to a 1:20,000 dilution of horseradish peroxidase-conjugated goat anti-rabbit secondary antibody (Sigma-Aldrich, St. Louis, Mo.). After washing three times with 1×PBST, the membranes were illuminated with the ECL Plus™ substrate (GE Healthcare) and the X-ray films exposed, according to the manufacturer's instructions.
RAW 264.7 cells were cultured in the absence or presence of LPS (1 μg/ml). Some cells were co-incubated with graded concentrations of XJB-5-131. […]

[4] = system: C57B1/6J mice challenged with LPS; experiment: Plasma nitrite/nitrate in LPS-challenged mice; type: in vivo; set-up: unit not given here; settings: 2 μmol/kg 60 min before i.p. LPS 15 mg/kg, blood 24 h after LPS, LPS alone 321.8±70.1, control 41.8±7.0, mean±SEM, p<0.05
Experimental: as §1, §2
All experiments using mice followed the guidelines for the use of experimental animals of the U.S. National Institutes of Health and were approved by the Institutional Animal Care and Use Committee at the University of Pittsburgh. […]

[5] = system: iNOS mRNA in hepatic tissue of LPS-challenged mice; experiment: Hepatic iNOS mRNA expression in LPS-challenged mice; type: in vivo; settings: 2 μmol/kg 1 h before i.p. LPS 15 mg/kg, 24 h after LPS, RT-PCR
Experimental: RAW 264.7 cells and liver tissue specimens were lysed with TRI-Reagent® (Molecular Research Center, Cincinnati, Ohio). Bromochloropropane (0.5 mL) was added in order to extract total RNA. After vigorous agitation and centrifugation (4° C., 12,000 g, 12 min), the aqueous phase containing RNA was collected. The RNA was precipitated with isopropanol (0.5 mL). The pellet was washed with 75% ethanol (1 mL) and centrifuged (4° C., 12,000 g, 5 min) twice, and then dissolved in RNA-free water. Total RNA was quantified using UV spectrophotometry (GeneQuant™ pro, GE Healthcare). Extracted RNAs (1 μg/reaction) were converted to single-strand cDNAs in a 20 μL volume reaction, using the Reverse Transcriptase System Kit (Promega, Madison, Wis.) as directed by the manufacturer. […] The ΔC^T relative quantification method was used to calculate mRNA levels for iNOS in the samples, as previously described (Scharte M, Han X, Bertges D J et al. Cytokines induce HIF-1 DNA binding and the expression of HIF-1-dependent genes in cultured rat enterocytes. Am J Physiol Gastrointest Liver Physiol 2003, 284:G373-G384). […]
Mice were randomly pretreated with a solution containing XJB-5-131 (2 μmol/kg) or a similar volume (2 ml/kg) of vehicle, a 67:33 (v/v) mixture of DMSO and normal saline. […] Subsequently, iNOS mRNA expression was measured, using quantitative real-time RT-PCR. […]

CC(C)C[C@@H](/C=C/[C@H](Cc1ccccc1)C(=O)N1CCC[C@H]1C(=O)N[C@H](C(=O)N[C@@H](CCCNC(=O)OCc1ccccc1)C(=O)NC1CC(C)(C)N([O])C(C)(C)C1)C(C)C)NC(=O)OC(C)(C)C [XJB-5-131, N-Boc-Leu-[(E)-CH═CH]-^DPhe-Pro-Val-Orn(Cbz)-N-TEMPO] was tested, and the IC50 ([1]; Mus musculus, RAW264.7, 24 h, RAW 264.7 cells, LPS 100 or 1000 ng/ml, NO2- plus NO3- in supernatant, approximate, read-out: IC50 for inhibition of LPS-induced NO production) was ~3 µM, the “NO secretion by LPS-stimulated RAW 264.7 cells” value [1] was “significantly reduced” and the “Potency in inhibiting LPS-induced iNOS up-regulation, relative to XJB-5-208” value [2] was “more potent”. The “LPS-induced iNOS mRNA up-regulation” value [2] was “inhibited LPS-induced iNOS up-regulation”, the “LPS-induced HMGB1 secretion” value [3] was “inhibited LPS-induced HMGB1 secretion in a concentration-dependent fashion” and the “concentration of nitrites within blood plasma” value [4] was 179.5±34.6. The “iNOS expression in liver samples” value [5] was “attenuated iNOS expression in liver samples”.
With “N-Boc-Leu-[(E)-CH═CH]-^DPhe-N-TEMPO [XJB-5-208]” the “NO secretion by LPS-stimulated RAW 264.7 cells” value [1] was “significantly reduced” and the “LPS-induced iNOS mRNA up-regulation” value [2] was “inhibited LPS-induced iNOS up-regulation”.
